Values quoted from earlier work in PMC12181400, “Leveraging viral genome sequences and machine learning models for identification of potentially selective antiviral agents” (Communications Chemistry, 2025).
Structures can show the parent of a compound that is named as a salt. Where two headings read alike, the source gives them in different places.

Columns and labels:
Conditions in all cases: cited from earlier work
[1] = test system: cell viability (tox21-car-agonist-p1)
[2] = test system: cell viability (tox21-car-antagonist-p1)
[3] = test system: cell viability (tox21-ap1-agonist-p1)
[4] = test system: cell viability (tox21-ar-mda-kb2-luc-agonist-p3)
[5] = test system: cell viability (tox21-are-bla-p1)
[6] = test system: cell viability (tox21-ar-mda-kb2-luc-antagonist-p2)
[7] = curve rank −9 to 9, 0 = inactive, ref NCATS Tox21 public data browser

| Compound | tox21-car-agonist-p1-viability (curve rank) [1, 7] | tox21-car-antagonist-p1-viability (curve rank) [2, 7] | tox21-ap1-agonist-p1-viability (curve rank) [3, 7] | tox21-ar-mda-kb2-luc-agonist-p3-viability (curve rank) [4, 7] | tox21-are-bla-p1-viability (curve rank) [5, 7] | tox21-ar-mda-kb2-luc-antagonist-p2-viability (curve rank) [6, 7] | tox21-car-agonist-p1-viability (curve rank) [1] | tox21-car-antagonist-p1-viability (curve rank) [2] | tox21-ap1-agonist-p1-viability (curve rank) [3] | tox21-ar-mda-kb2-luc-agonist-p3-viability (curve rank) [4] | tox21-are-bla-p1-viability (curve rank) [5] | tox21-ar-mda-kb2-luc-antagonist-p2-viability (curve rank) [6] |
| --- | --- | --- | --- | --- | --- | --- | --- | --- | --- | --- | --- | --- |
| COc1cccc(C2(O)CCCCC2CN(C)C)c1.Cl (stereo not drawn) [Tramadol hydrochloride] | 0 | 0 | 0 | 0 | 0 | 0 |  |  |  |  |  |  |
| CCC1(c2cccc(O)c2)CCCCN(C)C1 (stereo not drawn) [Meptazinol hydrochloride] | 0 | 0 | 0 | 0 | 0 | 0 |  |  |  |  |  |  |
| NS(=O)(=O)c1cc2c(cc1C(F)(F)F)NC(Cc1ccccc1)NS2(=O)=O (stereo not drawn) [Bendroflumethiazide] |  |  |  |  |  |  | 0 | 0 | 0 | 0 | 0 | 0 |
| C=CCNC(N)=S [Allylthiourea] | 0 | 0 | 0 | 0 | 0 | 0 |  |  |  |  |  |  |
| CCOC(=O)[C@H](CCc1ccccc1)N[C@@H](C)C(=O)N1CCC[C@H]1C(=O)O [Enalapril maleate] |  |  |  |  |  |  | 0 | 0 | 0 | 0 | 0 | 0 |
| COC(=O)[C@H](c1ccccc1Cl)N1CCc2sccc2C1 [Clopidogrel bisulfate] |  |  |  |  |  |  | 0 | 0 | 0 | 0 | 0 | 0 |
| O=C1NCC2(CCN(CCc3ccccc3)CC2)O1 [Fenspiride hydrochloride] | 0 | 0 | 0 | 0 | 0 | 0 |  |  |  |  |  |  |
| CC[N+]1(C)CCCC(OC(=O)C(O)(c2ccccc2)c2ccccc2)C1 (stereo not drawn) [Pipenzolate bromide] |  |  |  |  |  |  | 0 | 0 | 0 | 0 | 0 | 0 |
| Cc1nc(C)c(Cl)c(O)c1Cl [Clopidol] | 0 | 0 | -0.67 | 0 | 0 | 0 |  |  |  |  |  |  |
| Nc1ccc(S(=O)(=O)Nc2ccnn2-c2ccccc2)cc1 [Sulfaphenazole] |  |  |  |  |  |  | 0 | 0 | 0 | 0 | 0 | 0 |
| O=C(O)CCCCC(=O)O [Hexanedioic acid] | 0 | 0 | 0 | 0 | 0 | 0 |  |  |  |  |  |  |
| CCS(=O)(=O)CCn1c([N+](=O)[O-])cnc1C [Tinidazole] |  |  |  |  |  |  | 0 | 0 | 0 | 0 | 0 | 0 |
| COc1cc(-c2ccc(=O)[nH]n2)ccc1OC(F)F [Zardaverine] | 0 | 0 | 0 | 0 | 0 | 0 |  |  |  |  |  |  |
| CC1=C2[C@H]3OC(=O)[C@@H](C)[C@@H]3CC[C@@]2(C)C=CC1=O [alpha-Santonin] | 0 | 0 | 0 | 0 | 0 | 0 |  |  |  |  |  |  |
